# Assay results reported in PubChem BioAssay (NCI).
#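 Compound exposure: 48 hours, 5 concentrations, 96-well plates. Abbreviation: GI50, concentration required for 50% inhibition of growth. TGI marks complete inhibition of growth.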
# How the values were obtained:
# Experiment in all cases: growth of human tumour cells (NCI), 48 h
# 786-0 renal = test system: 786-0 renal
# A498 renal = test system: A498 renal
# A549 NSCLC = test system: A549 NSCLC
# ACHN renal = test system: ACHN renal
# BT-549 breast = test system: BT-549 breast
# CAKI-1 renal = test system: CAKI-1 renal
# CCRF-CEM leukemia = test system: CCRF-CEM leukemia
# COLO 205 colon = test system: COLO 205 colon
# DU-145 prostate = test system: DU-145 prostate
# EKVX NSCLC = test system: EKVX NSCLC
# HCT-116 colon = test system: HCT-116 colon
# HCT-15 colon = test system: HCT-15 colon
# HL-60(TB) leukemia = test system: HL-60(TB) leukemia
# HOP-62 NSCLC = test system: HOP-62 NSCLC
# HOP-92 NSCLC = test system: HOP-92 NSCLC
# HS 578T breast = test system: HS 578T breast
# HT29 colon = test system: HT29 colon
# IGROV1 ovarian = test system: IGROV1 ovarian
# K-562 leukemia = test system: K-562 leukemia
# KM12 colon = test system: KM12 colon
# LOX IMVI melanoma = test system: LOX IMVI melanoma
# M14 melanoma = test system: M14 melanoma
# MALME-3M melanoma = test system: MALME-3M melanoma
# MCF7 breast = test system: MCF7 breast
# MDA-MB-231 breast = test system: MDA-MB-231 breast
# MDA-MB-435 = test system: MDA-MB-435
# MOLT-4 leukemia = test system: MOLT-4 leukemia
# NCI-H226 lung = test system: NCI-H226 lung
# NCI-H23 lung = test system: NCI-H23 lung
# NCI-H460 lung = test system: NCI-H460 lung
# NCI-H522 lung = test system: NCI-H522 lung
# NCI/ADR-RES ovarian = test system: NCI/ADR-RES ovarian
# OVCAR-3 ovarian = test system: OVCAR-3 ovarian
# OVCAR-4 ovarian = test system: OVCAR-4 ovarian
# OVCAR-5 ovarian = test system: OVCAR-5 ovarian
# OVCAR-8 ovarian = test system: OVCAR-8 ovarian
# PC-3 prostate = test system: PC-3 prostate
# RPMI-8226 leukemia = test system: RPMI-8226 leukemia
# RXF 393 renal = test system: RXF 393 renal
# SF-268 CNS = test system: SF-268 CNS
# SF-295 CNS = test system: SF-295 CNS
# SF-539 CNS = test system: SF-539 CNS
# SK-MEL-2 melanoma = test system: SK-MEL-2 melanoma
# SK-MEL-28 melanoma = test system: SK-MEL-28 melanoma
# SK-MEL-5 melanoma = test system: SK-MEL-5 melanoma
# SK-OV-3 ovarian = test system: SK-OV-3 ovarian
# SN12C renal = test system: SN12C renal
# SNB-19 CNS = test system: SNB-19 CNS
# SNB-75 CNS = test system: SNB-75 CNS
# SR leukemia = test system: SR leukemia
# SW-620 colon = test system: SW-620 colon
# T-47D breast = test system: T-47D breast
# TK-10 renal = test system: TK-10 renal
# U251 CNS = test system: U251 CNS
# UACC-257 melanoma = test system: UACC-257 melanoma
# UACC-62 melanoma = test system: UACC-62 melanoma
# UO-31 renal = test system: UO-31 renal
# HCC-2998 colon = test system: HCC-2998 colon
compound,measurement,setting,value
COc1ccc(C2=NNC(=O)c3ccccc3N2c2nc(-c3cccs3)nc3ccc(Br)cc23)cc1,TGI,786-0 renal,82 µM
same,TGI,A498 renal,> 100 µM
same,TGI,A549 NSCLC,> 100 µM
same,TGI,ACHN renal,> 100 µM
same,TGI,BT-549 breast,> 100 µM
same,TGI,CAKI-1 renal,> 100 µM
same,TGI,CCRF-CEM leukemia,> 100 µM
same,TGI,COLO 205 colon,> 100 µM
same,TGI,DU-145 prostate,> 100 µM
same,TGI,EKVX NSCLC,91.5 µM
same,TGI,HCT-116 colon,> 100 µM
same,TGI,HCT-15 colon,> 100 µM
same,TGI,HL-60(TB) leukemia,> 100 µM
same,TGI,HOP-62 NSCLC,49.5 µM
same,TGI,HOP-92 NSCLC,> 100 µM
same,TGI,HS 578T breast,> 100 µM
same,TGI,HT29 colon,> 100 µM
same,TGI,IGROV1 ovarian,> 100 µM
same,TGI,K-562 leukemia,> 100 µM
same,TGI,KM12 colon,> 100 µM
same,TGI,LOX IMVI melanoma,> 100 µM
same,TGI,M14 melanoma,> 100 µM
same,TGI,MALME-3M melanoma,75.9 µM
same,TGI,MCF7 breast,> 100 µM
same,TGI,MDA-MB-231 breast,> 100 µM
same,TGI,MDA-MB-435,> 100 µM
same,TGI,MOLT-4 leukemia,> 100 µM
same,TGI,NCI-H226 lung,73.7 µM
same,TGI,NCI-H23 lung,> 100 µM
same,TGI,NCI-H460 lung,> 100 µM
same,TGI,NCI-H522 lung,> 100 µM
same,TGI,NCI/ADR-RES ovarian,62.4 µM
same,TGI,OVCAR-3 ovarian,52.5 µM
same,TGI,OVCAR-4 ovarian,> 100 µM
same,TGI,OVCAR-5 ovarian,> 100 µM
same,TGI,OVCAR-8 ovarian,> 100 µM
same,TGI,PC-3 prostate,91.4 µM
same,TGI,RPMI-8226 leukemia,> 100 µM
same,TGI,RXF 393 renal,> 100 µM
same,TGI,SF-268 CNS,> 100 µM
same,TGI,SF-295 CNS,55.1 µM
same,TGI,SF-539 CNS,39.3 µM
same,TGI,SK-MEL-2 melanoma,> 100 µM
same,TGI,SK-MEL-28 melanoma,> 100 µM
same,TGI,SK-MEL-5 melanoma,> 100 µM
same,TGI,SK-OV-3 ovarian,> 100 µM
same,TGI,SN12C renal,> 100 µM
same,TGI,SNB-19 CNS,> 100 µM
same,TGI,SNB-75 CNS,> 100 µM
same,TGI,SR leukemia,> 100 µM
same,TGI,SW-620 colon,> 100 µM
same,TGI,T-47D breast,> 100 µM
same,TGI,TK-10 renal,72.8 µM
same,TGI,U251 CNS,> 100 µM
same,TGI,UACC-257 melanoma,> 100 µM
same,TGI,UACC-62 melanoma,> 100 µM
same,TGI,UO-31 renal,> 100 µM
N#Cc1ncc(N2C(=O)C3(CCC3)N(c3ccc(OC4CCNCC4)nc3)C2=S)cc1C(F)(F)F,GI50,786-0 renal,13.6 µM
same,TGI,786-0 renal,26.8 µM
same,GI50,A498 renal,12.2 µM
same,TGI,A498 renal,32.7 µM
same,GI50,A549 NSCLC,27.7 µM
same,TGI,A549 NSCLC,> 100 µM
same,GI50,ACHN renal,17.7 µM
same,TGI,ACHN renal,32 µM
same,GI50,BT-549 breast,12.9 µM
same,TGI,BT-549 breast,26 µM
same,GI50,CAKI-1 renal,14 µM
same,TGI,CAKI-1 renal,28.9 µM
same,GI50,CCRF-CEM leukemia,13.5 µM
same,TGI,CCRF-CEM leukemia,39.1 µM
same,GI50,COLO 205 colon,14.2 µM
same,TGI,COLO 205 colon,28.3 µM
same,GI50,DU-145 prostate,18.8 µM
same,TGI,DU-145 prostate,41.1 µM
same,GI50,EKVX NSCLC,18 µM
same,TGI,EKVX NSCLC,46.4 µM
same,GI50,HCC-2998 colon,15.6 µM
same,TGI,HCC-2998 colon,31.2 µM
same,GI50,HCT-116 colon,11.7 µM
same,TGI,HCT-116 colon,24.4 µM
same,GI50,HCT-15 colon,13.1 µM
same,TGI,HCT-15 colon,27.8 µM
same,GI50,HL-60(TB) leukemia,12.1 µM
same,TGI,HL-60(TB) leukemia,33.9 µM
same,GI50,HOP-62 NSCLC,25.2 µM
same,TGI,HOP-62 NSCLC,67.4 µM
same,GI50,HOP-92 NSCLC,1.11 µM
same,TGI,HOP-92 NSCLC,10.5 µM
same,GI50,HS 578T breast,15.9 µM
same,TGI,HS 578T breast,41.5 µM
same,GI50,HT29 colon,8.92 µM
same,TGI,HT29 colon,29.9 µM
same,GI50,IGROV1 ovarian,17.1 µM
same,TGI,IGROV1 ovarian,36.3 µM
same,GI50,K-562 leukemia,5.84 µM
same,TGI,K-562 leukemia,34.4 µM
same,GI50,KM12 colon,18.5 µM
same,TGI,KM12 colon,37 µM
same,GI50,LOX IMVI melanoma,11.2 µM
same,TGI,LOX IMVI melanoma,24 µM
same,GI50,M14 melanoma,7.31 µM
same,TGI,M14 melanoma,20.6 µM
same,GI50,MALME-3M melanoma,13.2 µM
same,TGI,MALME-3M melanoma,27.6 µM
same,GI50,MCF7 breast,11.5 µM
same,TGI,MCF7 breast,26.4 µM
same,GI50,MDA-MB-231 breast,16.4 µM
same,TGI,MDA-MB-231 breast,33.6 µM
same,GI50,MDA-MB-435,15.8 µM
same,TGI,MDA-MB-435,31.3 µM
same,GI50,MOLT-4 leukemia,13.1 µM
same,TGI,MOLT-4 leukemia,42 µM
same,GI50,NCI-H226 lung,15.7 µM
same,TGI,NCI-H226 lung,34 µM
same,GI50,NCI-H23 lung,13.9 µM
same,TGI,NCI-H23 lung,32.1 µM
same,GI50,NCI-H460 lung,16.8 µM
same,TGI,NCI-H460 lung,31.7 µM
same,GI50,NCI-H522 lung,18.1 µM
same,TGI,NCI-H522 lung,35.5 µM
same,GI50,NCI/ADR-RES ovarian,25.2 µM
same,TGI,NCI/ADR-RES ovarian,81.9 µM
same,GI50,OVCAR-4 ovarian,18.2 µM
same,TGI,OVCAR-4 ovarian,44.4 µM
same,GI50,OVCAR-5 ovarian,17.3 µM
same,TGI,OVCAR-5 ovarian,46.8 µM
same,GI50,OVCAR-8 ovarian,25.1 µM
same,TGI,OVCAR-8 ovarian,76.2 µM
same,GI50,PC-3 prostate,13.9 µM
same,TGI,PC-3 prostate,28.9 µM
same,GI50,RPMI-8226 leukemia,11.5 µM
same,TGI,RPMI-8226 leukemia,32 µM
same,GI50,RXF 393 renal,12.1 µM
same,TGI,RXF 393 renal,25.8 µM
same,GI50,SF-268 CNS,18.6 µM
same,TGI,SF-268 CNS,43.2 µM
same,GI50,SF-295 CNS,16.1 µM
same,TGI,SF-295 CNS,31.5 µM
same,GI50,SF-539 CNS,15.4 µM
same,TGI,SF-539 CNS,30 µM
same,GI50,SK-MEL-2 melanoma,15.1 µM
same,TGI,SK-MEL-2 melanoma,30.5 µM
same,GI50,SK-MEL-28 melanoma,13.8 µM
same,TGI,SK-MEL-28 melanoma,27.4 µM
same,GI50,SK-MEL-5 melanoma,17.2 µM
same,TGI,SK-MEL-5 melanoma,32 µM
same,GI50,SK-OV-3 ovarian,60.5 µM
same,TGI,SK-OV-3 ovarian,> 100 µM
same,GI50,SN12C renal,15.8 µM
same,TGI,SN12C renal,36 µM
same,GI50,SNB-19 CNS,36.8 µM
same,TGI,SNB-19 CNS,> 100 µM
same,GI50,SNB-75 CNS,15.4 µM
same,TGI,SNB-75 CNS,50.1 µM
same,GI50,SR leukemia,3.37 µM
same,TGI,SR leukemia,21.1 µM
same,GI50,SW-620 colon,14.7 µM
same,TGI,SW-620 colon,29.5 µM
same,GI50,T-47D breast,12.2 µM
same,TGI,T-47D breast,49.6 µM
same,GI50,TK-10 renal,17.9 µM
same,TGI,TK-10 renal,39.1 µM
same,GI50,U251 CNS,20.2 µM
same,TGI,U251 CNS,48.7 µM
same,GI50,UACC-257 melanoma,12.1 µM
same,TGI,UACC-257 melanoma,25.8 µM
same,GI50,UACC-62 melanoma,15.9 µM
same,TGI,UACC-62 melanoma,31.5 µM
same,GI50,UO-31 renal,11 µM
same,TGI,UO-31 renal,23.3 µM
